#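 Tested at 5 concentrations; 48 h exposure; 96-well plates; endpoints linearly interpolated, else capped at highest concentration. Here, GI50 denotes the concentration required for 50% inhibition of growth. At the TGI there is no net growth.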
# Legend:
# Assay in all cases: inhibition of tumour cell growth, NCI panel, 48 h
# UACC-257 melanoma = system: UACC-257 melanoma
# OVCAR-8 ovarian = system: OVCAR-8 ovarian
# NCI-H23 lung = system: NCI-H23 lung
# KM12 colon = system: KM12 colon
# SNB-19 CNS = system: SNB-19 CNS
# SW-620 colon = system: SW-620 colon
# HT29 colon = system: HT29 colon
# SK-MEL-5 melanoma = system: SK-MEL-5 melanoma
# NCI-H460 lung = system: NCI-H460 lung
# SK-OV-3 ovarian = system: SK-OV-3 ovarian
# SNB-75 CNS = system: SNB-75 CNS
# ACHN renal = system: ACHN renal
# SR leukemia = system: SR leukemia
# HCT-116 colon = system: HCT-116 colon
# HOP-92 NSCLC = system: HOP-92 NSCLC
# HCT-15 colon = system: HCT-15 colon
# DU-145 prostate = system: DU-145 prostate
# U251 CNS = system: U251 CNS
# SF-268 CNS = system: SF-268 CNS
# PC-3 prostate = system: PC-3 prostate
# T-47D breast = system: T-47D breast
# RPMI-8226 leukemia = system: RPMI-8226 leukemia
# A549 NSCLC = system: A549 NSCLC
# MOLT-4 leukemia = system: MOLT-4 leukemia
# IGROV1 ovarian = system: IGROV1 ovarian
# M14 melanoma = system: M14 melanoma
# HS 578T breast = system: HS 578T breast
# NCI/ADR-RES ovarian = system: NCI/ADR-RES ovarian
# OVCAR-4 ovarian = system: OVCAR-4 ovarian
# SK-MEL-2 melanoma = system: SK-MEL-2 melanoma
# CCRF-CEM leukemia = system: CCRF-CEM leukemia
# SF-539 CNS = system: SF-539 CNS
# COLO 205 colon = system: COLO 205 colon
# NCI-H226 lung = system: NCI-H226 lung
# SF-295 CNS = system: SF-295 CNS
# EKVX NSCLC = system: EKVX NSCLC
# OVCAR-5 ovarian = system: OVCAR-5 ovarian
# RXF 393 renal = system: RXF 393 renal
# MDA-MB-231 breast = system: MDA-MB-231 breast
# BT-549 breast = system: BT-549 breast
# NCI-H522 lung = system: NCI-H522 lung
# 786-0 renal = system: 786-0 renal
# CAKI-1 renal = system: CAKI-1 renal
# MALME-3M melanoma = system: MALME-3M melanoma
# OVCAR-3 ovarian = system: OVCAR-3 ovarian
# MDA-MB-435 = system: MDA-MB-435
# K-562 leukemia = system: K-562 leukemia
# HOP-62 NSCLC = system: HOP-62 NSCLC
# LOX IMVI melanoma = system: LOX IMVI melanoma
# SN12C renal = system: SN12C renal
# MCF7 breast = system: MCF7 breast
# UACC-62 melanoma = system: UACC-62 melanoma
# UO-31 renal = system: UO-31 renal
# TK-10 renal = system: TK-10 renal
# SK-MEL-28 melanoma = system: SK-MEL-28 melanoma
# A498 renal = system: A498 renal
# HCC-2998 colon = system: HCC-2998 colon
# HL-60(TB) leukemia = system: HL-60(TB) leukemia
compound,measurement,setting,value
C=C1C[C@H](O)[C@H]2C(C[Se]c3ccccc3)C(=O)O[C@@H]2[C@H]2[C@H](C)C(O)C[C@@H]12 (some centres undefined),TGI,UACC-257 melanoma,> 100 µM
same,TGI,OVCAR-8 ovarian,> 100 µM
same,TGI,NCI-H23 lung,40.7 µM
same,TGI,KM12 colon,> 100 µM
same,TGI,SNB-19 CNS,> 100 µM
same,TGI,SW-620 colon,94.8 µM
same,TGI,HT29 colon,> 100 µM
same,TGI,SK-MEL-5 melanoma,> 100 µM
same,TGI,NCI-H460 lung,> 100 µM
same,TGI,SK-OV-3 ovarian,> 100 µM
same,TGI,SNB-75 CNS,> 100 µM
same,TGI,ACHN renal,76.3 µM
same,TGI,SR leukemia,> 100 µM
same,TGI,HCT-116 colon,56.4 µM
same,TGI,HOP-92 NSCLC,> 100 µM
same,TGI,HCT-15 colon,33.9 µM
same,TGI,DU-145 prostate,> 100 µM
same,TGI,U251 CNS,30.8 µM
same,TGI,SF-268 CNS,> 100 µM
same,TGI,PC-3 prostate,> 100 µM
same,TGI,T-47D breast,> 100 µM
same,TGI,RPMI-8226 leukemia,98 µM
same,TGI,A549 NSCLC,> 100 µM
same,TGI,MOLT-4 leukemia,> 100 µM
same,TGI,IGROV1 ovarian,93.1 µM
same,TGI,M14 melanoma,> 100 µM
same,TGI,HS 578T breast,> 100 µM
same,TGI,NCI/ADR-RES ovarian,51.6 µM
same,TGI,OVCAR-4 ovarian,> 100 µM
same,TGI,SK-MEL-2 melanoma,> 100 µM
same,TGI,CCRF-CEM leukemia,> 100 µM
same,TGI,SF-539 CNS,> 100 µM
same,TGI,COLO 205 colon,> 100 µM
same,TGI,NCI-H226 lung,83.9 µM
same,TGI,SF-295 CNS,> 100 µM
same,TGI,EKVX NSCLC,> 100 µM
same,TGI,OVCAR-5 ovarian,55 µM
same,TGI,RXF 393 renal,50.2 µM
same,TGI,MDA-MB-231 breast,38.1 µM
same,TGI,BT-549 breast,98.4 µM
same,TGI,NCI-H522 lung,38.1 µM
same,TGI,786-0 renal,99.3 µM
same,TGI,CAKI-1 renal,> 100 µM
same,TGI,MALME-3M melanoma,> 100 µM
same,TGI,OVCAR-3 ovarian,98.6 µM
same,TGI,MDA-MB-435,> 100 µM
same,TGI,K-562 leukemia,> 100 µM
same,TGI,HOP-62 NSCLC,> 100 µM
same,TGI,LOX IMVI melanoma,51.4 µM
same,TGI,SN12C renal,65 µM
same,TGI,MCF7 breast,> 100 µM
same,TGI,UACC-62 melanoma,64.1 µM
same,TGI,UO-31 renal,63.7 µM
same,TGI,TK-10 renal,> 100 µM
same,TGI,SK-MEL-28 melanoma,> 100 µM
COc1cc(C(=O)/C=C/c2cc(-c3cc(OC)c(OC)c(OC)c3)n[nH]2)cc(OC)c1OC,GI50,UACC-257 melanoma,1.57 µM
same,TGI,UACC-257 melanoma,2.99 µM
same,GI50,A498 renal,1.61 µM
same,TGI,A498 renal,3.59 µM
same,GI50,OVCAR-8 ovarian,1.58 µM
same,TGI,OVCAR-8 ovarian,3.28 µM
same,GI50,NCI-H23 lung,3.04 µM
same,TGI,NCI-H23 lung,9.9 µM
same,GI50,KM12 colon,1.49 µM
same,TGI,KM12 colon,2.93 µM
same,GI50,SNB-19 CNS,1.66 µM
same,TGI,SNB-19 CNS,3.69 µM
same,GI50,SW-620 colon,1.59 µM
same,TGI,SW-620 colon,3.08 µM
same,GI50,HT29 colon,1.79 µM
same,TGI,HT29 colon,3.37 µM
same,GI50,SK-MEL-5 melanoma,1.57 µM
same,TGI,SK-MEL-5 melanoma,2.94 µM
same,GI50,NCI-H460 lung,1.89 µM
same,TGI,NCI-H460 lung,4.33 µM
same,GI50,SK-OV-3 ovarian,3.2 µM
same,TGI,SK-OV-3 ovarian,11.1 µM
same,GI50,ACHN renal,1.62 µM
same,TGI,ACHN renal,3.01 µM
same,GI50,SR leukemia,0.398 µM
same,TGI,SR leukemia,> 100 µM
same,GI50,HCT-116 colon,1.31 µM
same,TGI,HCT-116 colon,2.59 µM
same,GI50,HOP-92 NSCLC,0.186 µM
same,TGI,HOP-92 NSCLC,1.02 µM
same,GI50,HCC-2998 colon,1.83 µM
same,TGI,HCC-2998 colon,3.39 µM
same,GI50,HCT-15 colon,1.5 µM
same,TGI,HCT-15 colon,3.29 µM
same,GI50,U251 CNS,1.54 µM
same,TGI,U251 CNS,2.96 µM
same,GI50,SF-268 CNS,1.94 µM
same,TGI,SF-268 CNS,4.58 µM
same,GI50,PC-3 prostate,1.47 µM
same,TGI,PC-3 prostate,3.29 µM
same,GI50,T-47D breast,1.13 µM
same,TGI,T-47D breast,2.57 µM
same,GI50,RPMI-8226 leukemia,0.318 µM
same,TGI,RPMI-8226 leukemia,2.06 µM
same,GI50,A549 NSCLC,2.72 µM
same,TGI,A549 NSCLC,12.1 µM
same,GI50,MOLT-4 leukemia,2.32 µM
same,TGI,MOLT-4 leukemia,8.95 µM
same,GI50,IGROV1 ovarian,3.14 µM
same,TGI,IGROV1 ovarian,10.2 µM
same,GI50,M14 melanoma,1.79 µM
same,TGI,M14 melanoma,3.32 µM
same,GI50,HS 578T breast,2.68 µM
same,TGI,HS 578T breast,53.9 µM
same,GI50,NCI/ADR-RES ovarian,3.47 µM
same,TGI,NCI/ADR-RES ovarian,21.4 µM
same,GI50,OVCAR-4 ovarian,1.45 µM
same,TGI,OVCAR-4 ovarian,2.76 µM
same,GI50,SK-MEL-2 melanoma,1.96 µM
same,TGI,SK-MEL-2 melanoma,4.04 µM
same,GI50,SF-539 CNS,1.29 µM
same,TGI,SF-539 CNS,2.83 µM
same,GI50,COLO 205 colon,1.75 µM
same,TGI,COLO 205 colon,3.13 µM
same,GI50,OVCAR-5 ovarian,1.64 µM
same,TGI,OVCAR-5 ovarian,3.12 µM
same,GI50,RXF 393 renal,1.26 µM
same,TGI,RXF 393 renal,2.67 µM
same,GI50,MDA-MB-231 breast,1.52 µM
same,TGI,MDA-MB-231 breast,3.8 µM
same,GI50,BT-549 breast,1.57 µM
same,TGI,BT-549 breast,2.96 µM
same,GI50,NCI-H522 lung,0.521 µM
same,TGI,NCI-H522 lung,1.7 µM
same,GI50,786-0 renal,1.56 µM
same,TGI,786-0 renal,3.25 µM
same,GI50,CAKI-1 renal,2.58 µM
same,TGI,CAKI-1 renal,10.9 µM
same,GI50,MALME-3M melanoma,1.86 µM
same,TGI,MALME-3M melanoma,4.09 µM
same,GI50,OVCAR-3 ovarian,1.75 µM
same,TGI,OVCAR-3 ovarian,3.18 µM
same,GI50,MDA-MB-435,1.49 µM
same,TGI,MDA-MB-435,2.95 µM
same,GI50,K-562 leukemia,2.96 µM
same,TGI,K-562 leukemia,> 100 µM
same,GI50,HOP-62 NSCLC,1.46 µM
same,TGI,HOP-62 NSCLC,2.89 µM
same,GI50,LOX IMVI melanoma,1.52 µM
same,TGI,LOX IMVI melanoma,2.91 µM
same,GI50,SN12C renal,1.47 µM
same,TGI,SN12C renal,2.97 µM
same,GI50,MCF7 breast,0.646 µM
same,TGI,MCF7 breast,2.07 µM
same,GI50,UACC-62 melanoma,1.78 µM
same,TGI,UACC-62 melanoma,3.68 µM
same,GI50,UO-31 renal,1.19 µM
same,TGI,UO-31 renal,2.48 µM
same,GI50,TK-10 renal,1.46 µM
same,TGI,TK-10 renal,2.8 µM
same,GI50,HL-60(TB) leukemia,1.93 µM
same,TGI,HL-60(TB) leukemia,5.52 µM
same,GI50,SK-MEL-28 melanoma,1.82 µM
same,TGI,SK-MEL-28 melanoma,3.33 µM
